Assay results from ChEMBL document CHEMBL1201862, “PubChem BioAssay data set” (2004).
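Compound exposure: 48 hours, 5 concentrations, 96-well plates. GI50 = concentration required for 50% inhibition of growth.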 Calls of active or inactive are those of the source. No stated cut-off is given here; in the data, active = GI50 up to about 1.1 µM and inactive = higher.

What was measured:
Test in all cases: inhibition of tumour cell growth, NCI panel, 48 h
HOP-92 = test system: HOP-92
HOP-62 = test system: HOP-62
A498 = test system: A498
EKVX = test system: EKVX
SK-MEL-5 = test system: SK-MEL-5
CCRF-CEM = test system: CCRF-CEM
NCI-H23 = test system: NCI-H23
HT-29 = test system: HT-29
MOLT-4 = test system: MOLT-4
OVCAR-5 = test system: OVCAR-5
SR = test system: SR
M14 = test system: M14
NCI-H522 = test system: NCI-H522
NCI-H226 = test system: NCI-H226
HCC 2998 = test system: HCC 2998
SF-268 = test system: SF-268
SF-295 = test system: SF-295
NCI-H460 = test system: NCI-H460
U-251 = test system: U-251
DLD-1 = test system: DLD-1

Row | SMILES | GI50 (HOP-92) | GI50 (HOP-62) | GI50 (A498) | GI50 (EKVX) | GI50 (SK-MEL-5) | GI50 (CCRF-CEM) | GI50 (NCI-H23) | GI50 (HT-29) | GI50 (MOLT-4) | GI50 (OVCAR-5) | GI50 (SR) | GI50 (M14) | GI50 (NCI-H522) | GI50 (NCI-H226) | GI50 (HCC 2998) | GI50 (SF-268) | GI50 (SF-295) | GI50 (NCI-H460) | GI50 (U-251) | GI50 (DLD-1)
1 | CN1C/C(=C\c2cccs2)C2=NC(=S)NC(c3cccs3)C2C1 (stereo not given) | 33.6 µM (inactive) | > 100 µM (inactive) | 61.8 µM (inactive) | 56.4 µM (inactive) | 33.6 µM (inactive) | 19.7 µM (inactive) | 77.6 µM (inactive) | 68.7 µM (inactive) | 19.5 µM (inactive) | > 100 µM (inactive) | 18.2 µM (inactive) | 55.2 µM (inactive) | 36.4 µM (inactive) | > 100 µM (inactive) | 93.8 µM (inactive) | 61.4 µM (inactive) | 42.8 µM (inactive) | 50.6 µM (inactive) | > 100 µM (inactive) | 
2 | O=C(CSc1nc(O)nc2[nH]cnc12)Nc1ccccc1 | > 100 µM (inactive) | 52.8 µM (inactive) | 76.7 µM (inactive) | > 100 µM (inactive) | 46.7 µM (inactive) | 33.7 µM (inactive) | > 100 µM (inactive) | > 100 µM (inactive) | 93.5 µM (inactive) | > 100 µM (inactive) | 51.6 µM (inactive) | > 100 µM (inactive) | 86.9 µM (inactive) | 37.1 µM (inactive) | > 100 µM (inactive) | 69.2 µM (inactive) | 86.9 µM (inactive) | > 100 µM (inactive) | 33.1 µM (inactive) | 
3 | CN(C)CCN(c1ccccn1)c1ccccn1 | > 100 µM (inactive) | > 100 µM (inactive) | > 100 µM (inactive) | > 100 µM (inactive) | > 100 µM (inactive) | > 100 µM (inactive) | > 100 µM (inactive) | > 100 µM (inactive) | > 100 µM (inactive) | > 100 µM (inactive) | > 100 µM (inactive) | > 100 µM (inactive) | > 100 µM (inactive) | > 100 µM (inactive) | > 100 µM (inactive) | > 100 µM (inactive) | > 100 µM (inactive) | > 100 µM (inactive) | > 100 µM (inactive) | 
4 | Cc1[nH]n(-c2ncc(C(=O)O)c(=O)[nH]2)c(=O)c1CCO | > 88.1 µM (inactive) | > 100 µM (inactive) | > 100 µM (inactive) | > 100 µM (inactive) | > 100 µM (inactive) | > 100 µM (inactive) | > 100 µM (inactive) | > 83.8 µM (inactive) | > 100 µM (inactive) | > 100 µM (inactive) | > 37 µM (inactive) | > 100 µM (inactive) | > 100 µM (inactive) | > 100 µM (inactive) | > 58.9 µM (inactive) | > 100 µM (inactive) | > 100 µM (inactive) | > 75.7 µM (inactive) | > 100 µM (inactive) | 
5 | C=CCN1C[C@H](C)N([C@H](c2ccc(C(=O)NC(CC)CC)cc2)c2cccc(OC)c2)C[C@H]1C | 31.7 µM (inactive) | > 100 µM (inactive) | 21.7 µM (inactive) | 79.4 µM (inactive) | 17.9 µM (inactive) | 41.4 µM (inactive) | 43.2 µM (inactive) | 25.1 µM (inactive) | > 100 µM (inactive) | 59.6 µM (inactive) | 23.7 µM (inactive) | 17.7 µM (inactive) | 13.4 µM (inactive) | 70.5 µM (inactive) | 29.2 µM (inactive) | 83.2 µM (inactive) | 39.8 µM (inactive) | 31 µM (inactive) | 34 µM (inactive) | 
6 | O=C1c2ccccc2-c2c1c1ccccc1c(=O)n2CCO | 29.5 µM (inactive) | 5.4 µM (inactive) | 35 µM (inactive) | 10 µM (inactive) | 8.81 µM (inactive) | 3.49 µM (inactive) | 14.1 µM (inactive) | 7.14 µM (inactive) | 2.14 µM (inactive) | > 100 µM (inactive) | 2.24 µM (inactive) | > 100 µM (inactive) | 24 µM (inactive) | 6.84 µM (inactive) | 24.8 µM (inactive) | 19.1 µM (inactive) | 11.8 µM (inactive) | 1.82 µM (inactive) | 8.61 µM (inactive) | 
7 | CC(=O)OCC1OC(n2c(C)c(C)c(C)c(C#N)c2=S)C(OC(C)=O)C(OC(C)=O)C1OC(C)=O (stereo not given) | 34.1 µM (inactive) | 13.3 µM (inactive) | > 100 µM (inactive) | 26.2 µM (inactive) | > 100 µM (inactive) | > 100 µM (inactive) | > 100 µM (inactive) | > 100 µM (inactive) | > 100 µM (inactive) | > 100 µM (inactive) | > 100 µM (inactive) | 44 µM (inactive) | 21.8 µM (inactive) | > 100 µM (inactive) | > 100 µM (inactive) | 95.5 µM (inactive) | 14.8 µM (inactive) | > 100 µM (inactive) | 27.6 µM (inactive) | 
8 | O=C1CCC2(CC1CC(Sc1ccccc1)Sc1ccccc1)OCCO2 (stereo not given) | 28 µM (inactive) | 81.1 µM (inactive) | 74.3 µM (inactive) | 61.8 µM (inactive) | 17.5 µM (inactive) | 31 µM (inactive) | 42.7 µM (inactive) | 61.4 µM (inactive) | 20.7 µM (inactive) | 72.4 µM (inactive) | 26.4 µM (inactive) | 43.9 µM (inactive) | 23.3 µM (inactive) | 58.7 µM (inactive) | 44.1 µM (inactive) | 31.2 µM (inactive) | 52.6 µM (inactive) | 31.8 µM (inactive) | 41.9 µM (inactive) | 
9 | CC(=O)OC1COC(Nc2nc(N)n(C)c(=O)c2N=O)C(OC(C)=O)C1OC(C)=O (stereo not given) | > 10 µM (inactive) | > 10 µM (inactive) | > 10 µM (inactive) | > 10 µM (inactive) | > 10 µM (inactive) | > 10 µM (inactive) | > 10 µM (inactive) | > 10 µM (inactive) | > 10 µM (inactive) | > 10 µM (inactive) | > 10 µM (inactive) | > 10 µM (inactive) | > 10 µM (inactive) | > 10 µM (inactive) | > 10 µM (inactive) | > 10 µM (inactive) | > 10 µM (inactive) | > 10 µM (inactive) | > 10 µM (inactive) | 
10 | CC/C=C/c1cc2c(c3[nH]ccc13)[C@@H](C)CC2C.CC/C=C/c1cc2cc[nH]c2c2c1C(C)C[C@@H]2C.CCc1cc2c(c3[nH]ccc13)[C@@H](C)CC2C (stereo not given in full) |  | 16.3 µM (inactive) |  | 18.4 µM (inactive) |  |  | 17.4 µM (inactive) | 14.4 µM (inactive) |  | 19.9 µM (inactive) |  | 13.5 µM (inactive) | 15.6 µM (inactive) | 15.2 µM (inactive) | 3.08 µM (inactive) | 15.5 µM (inactive) | 16.6 µM (inactive) | 15.2 µM (inactive) | 18 µM (inactive) | 13.5 µM (inactive)
11 | CN(C)CCCN1c2ccccc2CCc2cccc([N+](=O)[O-])c21 | 14.4 µM (inactive) | 16.5 µM (inactive) | 19.5 µM (inactive) | 49.3 µM (inactive) | 16.4 µM (inactive) | 5.38 µM (inactive) | 34.4 µM (inactive) | 14.6 µM (inactive) | 13.7 µM (inactive) | 28.8 µM (inactive) | 13.6 µM (inactive) | 15.7 µM (inactive) | 15.8 µM (inactive) | 22.6 µM (inactive) | 17.7 µM (inactive) | 23.5 µM (inactive) | 16.5 µM (inactive) | 18.2 µM (inactive) | 18.2 µM (inactive) | 
12 | COc1cc2ccc(/C=C\[N+](=O)[O-])cc2cc1OC | 4.41 µM (inactive) | 2.83 µM (inactive) | 15.5 µM (inactive) | 4.3 µM (inactive) | 4.76 µM (inactive) | 1.44 µM (inactive) | 2.5 µM (inactive) | 2 µM (inactive) | 5.09 µM (inactive) | 13.1 µM (inactive) | 1.98 µM (inactive) | 2.65 µM (inactive) | 1.13 µM (inactive) | 27.7 µM (inactive) | 3.44 µM (inactive) | 3.36 µM (inactive) | 18.2 µM (inactive) | 15.7 µM (inactive) | 2.65 µM (inactive) | 
13 | O=C(Nc1c(Cl)cc([N+](=O)[O-])cc1Cl)C(=O)C1C(=O)NC(=S)NC1=O | > 100 µM (inactive) | > 100 µM (inactive) | > 100 µM (inactive) | > 100 µM (inactive) | > 100 µM (inactive) | > 100 µM (inactive) | > 100 µM (inactive) | > 100 µM (inactive) | > 10 µM (inactive) | > 100 µM (inactive) | > 10 µM (inactive) | > 100 µM (inactive) | > 100 µM (inactive) | > 100 µM (inactive) | > 100 µM (inactive) | > 100 µM (inactive) | > 100 µM (inactive) | > 100 µM (inactive) | > 100 µM (inactive) | 
14 | c1cc(C[S+]2CCCC2)ccc1C[S+]1CCCC1 | > 100 µM (inactive) | > 100 µM (inactive) | 29.2 µM (inactive) | > 100 µM (inactive) | > 100 µM (inactive) | > 100 µM (inactive) | > 100 µM (inactive) | > 100 µM (inactive) | > 100 µM (inactive) | > 100 µM (inactive) | > 100 µM (inactive) | > 100 µM (inactive) | > 100 µM (inactive) | > 100 µM (inactive) | > 100 µM (inactive) | > 100 µM (inactive) | > 100 µM (inactive) | > 100 µM (inactive) | > 100 µM (inactive) | 
15 | COc1ccccc1NC1Oc2cc3c(cc2C(c2cc(OC)c(OC)c(OC)c2)C1C)OCO3 (stereo not given) | 3.24 µM (inactive) | 5.26 µM (inactive) | 4.9 µM (inactive) | > 26.1 µM (inactive) | 0.769 µM (active) | 2.37 µM (inactive) | 4.46 µM (inactive) | 2.11 µM (inactive) | 3.8 µM (inactive) | 6.64 µM (inactive) | 1.03 µM (active) | 3.26 µM (inactive) | 1.45 µM (inactive) | 4.35 µM (inactive) | 3.04 µM (inactive) | 3.62 µM (inactive) | 0.689 µM (active) | 4.09 µM (inactive) | 2.92 µM (inactive) | 
